Data published in ChEMBL document CHEMBL5532656, “Novel ligustilide derivatives target quorum sensing system LasR/LasB and relieve inflammatory response against Pseudomonas aeruginosa infection” (Eur J Med Chem, 2024).
Activity calls are given as the source filed them. The rule behind the calls is not given here.

Columns and labels:
[1] = Inhibition of quorum sensing system in Pseudomonas aeruginosa PAO1-lasB-gfp assessed as reduction in GFP expression incubated for 14 hrs
[2] = Inhibition of quorum sensing system in Pseudomonas aeruginosa PAO1-lasB-gfp at 10 uM relative to control
[3] = test system: Pseudomonas aeruginosa; assay: Anti-biofilm activity against Pseudomonas aeruginosa PAO1 assessed as suppression of biofilm formation at 1.25 to 10 uM incubated for 24 hrs by PI staining based confocal fluorescence microscopy based analysis; assay type: functional, organism-based; conditions: dose 1.25-10 µM
[4] = Cytotoxicity against African green monkey Vero cells assessed as reduction in cell viability at <20 uM measured after 24 hrs by MTT assay; assay type: toxicity, cell-based; conditions: chlorocebus sabaeus
[5] = test system: Erythrocyte; assay: Hemolytic activity in mouse erythrocytes assessed as hemolysis at 0.625 to 10 micromol/L measured after 4 hrs by microplate reader method; assay type: toxicity, cell-based; conditions: dose 0.625-10 µmol/L
[6] = test system: RAW264.7; assay: Antiinflammatory activity in mouse RAW264.7 cells assessed as reduction in iNOS mRNA expression at 2.5 to 10 uM by RT-PCR analysis; assay type: functional, cell-based; conditions: dose 2.5-10 µM
[7] = test system: RAW264.7; assay: Antiinflammatory activity in mouse RAW264.7 cells assessed as reduction in IL-1 beta mRNA expression at 2.5 to 10 uM by RT-PCR analysis; assay type: functional, cell-based; conditions: dose 2.5-10 µM
[8] = test system: RAW264.7; assay: Antiinflammatory activity in mouse RAW264.7 cells assessed as reduction in TNF alpha mRNA expression at 2.5 to 10 uM by RT-PCR analysis; assay type: functional, cell-based; conditions: dose 2.5-10 µM
[9] = test system: Mus musculus; assay: Anti-inflammatory activity against LPS-induced acute lung injury mouse model assessed as downregulation of IL-1 beta level administered as po dose preincubated for 4 hrs followed by LPS stimulation and measured after 6 hrs by ELISA method; assay type: functional, organism-based; conditions: dose 1-2 mg/kg, time 10.0 hrs
[10] = test system: Mus musculus; assay: Anti-inflammatory activity against LPS-induced acute lung injury mouse model assessed as downregulation of TNF-alpha level administered as po dose preincubated for 4 hrs followed by LPS stimulation and measured after 6 hrs by ELISA method; assay type: functional, organism-based; conditions: dose 1-2 mg/kg, time 10.0 hrs
[11] = test system: Mus musculus; assay: Anti-inflammatory activity against LPS-induced acute lung injury mouse model assessed as reduction in IL-1 beta mRNA expression at 1 to 2 mg/kg, po preincubated for 4 hrs followed by LPS stimulation and measured after 6 hrs; assay type: functional, organism-based; conditions: dose 1-2 mg/kg, time 10.0 hrs
[12] = test system: Mus musculus; assay: Anti-inflammatory activity against LPS-induced acute lung injury mouse model assessed as reduction in TNF-alpha mRNA expression at 1 to 2 mg/kg, po preincubated for 4 hrs followed by LPS stimulation and measured after 6 hrs; assay type: functional, organism-based; conditions: dose 1-2 mg/kg, time 10.0 hrs
[13] = test system: Mus musculus; assay: Protection against LPS-induced acute lung injury mouse model assessed as inhibition of alveolar wall thickening at 1 to 2 mg/kg, po preincubated for 4 hrs followed by LPS stimulation and measured after 6 hrs by H and E staining based analysis; assay type: functional, organism-based; conditions: dose 1-2 mg/kg, time 10.0 hrs
[14] = Toxicity in BALB/c mouse assessed as adverse effect at 2 to 4 mg/kg, IG; assay type: organism-based; conditions: in vivo, po, dose 2-4 mg/kg

IC50 [1]: 8.7 µM | inhibition ([1]; dose 0.625-10 µM): Dose-Dependent Effect | inhibition [2]: 51.6%
Compound: CCCCC1(O)C2=C(C=CCC2)C(=O)N1Cc1ccc(C(F)(F)F)cc1 (stereo not given)
Activity [3]: Dose-Dependent Effect | Activity [4]: Non-Toxic | Activity [5]: Toxic | Activity [6]: Active | Activity [7]: Active | Activity [8]: Active | Activity [9]: Dose-Dependent Effect | Activity [10]: Dose-Dependent Effect | Activity [11]: Active | Activity [12]: Active | Activity [13]: Active | Activity [14]: Non-Toxic
